Data on one compound can be found in patent publication US20220168310A1, “INHIBITION OF ADENOVIRUS WITH FILOCICLOVIR” (Microbiotix, Inc., priority 2019, published 2022).

“Also recorded” adds a separate entry of the source.

One data set relates to adenovirus 6 (AdV6). Briefly: CPE reduction assay, adenovirus 6. It is filed as cell-based, human adenovirus. The protocol: (§1) Similar experiments were carried out with filociclovir against adenovirus 6, adenovirus 7, and adenovirus 8.
The next data set concerns adenovirus 8 (AdV8). Briefly: CPE reduction assay, adenovirus 8. Type of data set: cell-based, human adenovirus. As to conditions: unidentified adenovirus, unit not given in Table 2 (Table 1 in μM). The protocol: as §1
Data set [1] can be described thus: Pharmacokinetics of filociclovir in immunosuppressed hamsters. The note with it: 6 hours after administration. Type of data set: in vivo, Syrian hamsters. The protocol:
In order to test the pharmacokinetics of filociclovir, we use a Syrian male hamster model of adenovirus infection. Syrian hamsters were given either an oral (p.o. 50 mg/kg) or intravenous (i.v. 10 mg/kg) dose of filociclovir. […] For i.v. administration, filociclovir was dissolved in DMSO (Sigma D2650) and then diluted with water to a final concentration of 5 mg/ml for filociclovir and 75% DMSO. The dosing solutions were prepared one day before use and stored at 4° C. Male Syrian hamsters were purchased from Envigo (Hackensack, N.J.) at ˜100 g body weight. […] The animals received three injections of CP before the administration of filociclovir. Two groups of animals (12 hamsters/group) were used for the two routes of administrations. In addition, three untreated animals (the same three hamsters for both routes) served as mock controls. The p.o. and i.v. experiments were performed on two consecutive days. As the hamsters weighed approximately 100 g, (+/−10%), they were administered 1 ml and 0.2 ml for the p.o. and i.v. routes, respectively, to achieve the desired dose. For both routes, 3 hamsters were sacrificed at 0.5, 1, 3, and 6 hr post dosing. […]

The test system of a further data set is Human AdV6. Briefly: High dose filociclovir against intravenously administered AdV6 in immunosuppressed hamsters (Example 5). The note with it: for mortality: p=0.0124 vs AdV6+Vehicle; for virus burden in the liver: TCID50. The protocol: Four dose levels were tested: 10, 30, 60, and 100 mg/kg p.o. q.d. The highest dose was determined based on rat toxicology data.
All hamsters were immunosuppressed using cyclophosphamide (CP). CP was administered intraperitoneally at a dose of 140 mg/kg, and then twice weekly at a dose of 100 mg/kg.
Filociclovir, in powdered form, was suspended in 0.4% carboxymethyl cellulose (Sigma C5678) at 1, 3, 6, and 10 mg/ml and sonicated to visual homogeneity and aliquots stored at 4° C. Aliquots were allowed to equilibrate to room temperature before dosing. Hamsters weighing approximately 100 g were dosed with a 1 ml volume of the appropriate suspension for the 10, 30, 60, and 100 mg/kg dose levels. References to “vehicle” refers to 0.4% carboxymethyl cellulose
The hamsters were divided into 8 groups, 15 hamsters/group, (with the exception of Group 2, which had only 5 hamsters; see Table 3), immunosuppressed, and then injected i.v. with vehicle (Groups 1-2) or 2×10^10 PFU/kg of AdV6 (Groups […]). Groups 1 and 3 received drug vehicle (p.o. q.d.), Group 4 received 10 mg/kg filociclovir (p.o. q.d.), Group 5 received 30 mg/kg filociclovir (p.o. q.d.), Group 6 received 60 mg/kg filociclovir (p.o. q.d.), Groups 2 and 7 received 100 mg/kg filociclovir (p.o. q.d.), and Group 8 received cidofovir (20 mg/kg, 3 times weekly). For all groups, drug administration started 1 day before challenge, and continued according to the schedule above for the duration of the study.
The body weights and any signs of morbidity of the animals were recorded daily. At 5 days post challenge, 5 hamsters (designated at the start of the experiment) from each group (with the exception of Group 2) were sacrificed, and gross pathological observation was performed. Serum and liver samples were collected and the virus burden in liver was determined by a TCID50 assay, and the serum was analyzed for transaminase levels. The remaining 10 hamsters were sacrificed at 14 days post challenge. Hamsters that became visually moribund before Day 14 were sacrificed as needed. In addition to the hamsters observed to be moribund, all hamsters that lost more than 20% of their original body weight were also sacrificed. For the hamsters sacrificed at the conclusion of the experiment and those sacrificed as moribund, serum and liver tissues were collected and banked for possible determination of serum transaminase levels and virus burden in the liver. Liver tissue was preserved in formalin for possible histopathological examination.

A further data set has as its system AdV6. Nature of the data set: Delayed treatment with 10 mg/kg filociclovir after AdV6 challenge in immunosuppressed hamsters (Example 7). It is filed as in vivo, Syrian hamsters. As to the method:
Aliquots are allowed to equilibrate to room temperature before dosing.
Hamsters were distributed into 8 groups, 15 hamsters each (Table 5), immunosuppressed as described above, and then injected i.v. with vehicle or 4×10^10 plaque forming units (PFU) of AdV6 per kg. Filociclovir was administered p.o. at 10 mg/kg q.d., starting at one day before, or 1, 2, 3, or 4 days after AdV6 injection.
Body weights and any signs of morbidity in the hamsters were recorded daily. At 7 days post challenge, 5 hamsters from each group (designated at the start of the experiment) were sacrificed, and gross pathological observations were performed.

Another data set deals with adenovirus 19 (AdV19). Nature of the data set: Efficacy against adenovirus 19 (data not shown).

Broadly, the EC50 is the concentration at which the effect is half-maximal. Lower therefore signals higher potency in that assay. The compound `Nc1nc2c(ncn2/C=C2/CC2(CO)CO)c(=O)[nH]1` [FCV, 2-amino-9-{(Z)-[2,2-bis(hydroxymethyl)cyclopropylidene]methyl}-3,9-dihydro-6H-purin-6-one] gave a CC50/EC50 in the data set with adenovirus 6 (AdV6) of 27. Also, the EC50 worked out at 3.67 µM in the data set on adenovirus 6 (AdV6) (Human mastadenovirus C, unit not given in Table 2 (Table 1 in μM)) and 2.45 µM in the data set with adenovirus 8 (AdV8). For the same compound, the detectability after administration result in data set [1] (i.v. 10 mg/kg) and in data set [1] (p.o. 50 mg/kg) was “still detectable” each time. In addition, the body weight loss entry with Human AdV6 (10 mg/kg p.o. q.d.) and in the data set on Human AdV6 (30 mg/kg p.o. q.d.) was “reversed” throughout. Also, the mortality entry in the data set with Human AdV6 (10 mg/kg p.o. q.d.) and in the data set on Human AdV6 (30 mg/kg p.o. q.d.) was “prevented mortality” in each case. Moreover, the “virus burden in the liver” value is “one animal in the AdV6+10 mg/kg filociclovir group with a very low liver virus burden” with Human AdV6 (10 mg/kg, 5 days post challenge) and “nondetectable level” in the data set with Human AdV6 (30 mg/kg, 5 days post challenge). Moreover, the “toxicity for AdV6-infected hamsters” value in the data set on Human AdV6 (60 mg/kg p.o. q.d.) and in the data set with Human AdV6 (100 mg/kg p.o. q.d.) was “toxic” each time. For the same compound, the “animals with elevated serum transaminase levels (ALT)” value in the data set with Human AdV6 (5 days post challenge, filociclovir p.o. q.d. groups, CDV 20 mg/kg 3 times weekly) is reported as “none”. Also, the “kidney pathology at day 5 sacrifice” value with Human AdV6 (AdV6+60 mg/kg) and in the data set with Human AdV6 (AdV6+100 mg/kg) was “extensive kidney pathology” each time. In the data set with AdV6 (10 mg/kg p.o. q.d. started day −1, +1, +2, +3 (p=0.0005) or +4 (p=0.0023) vs AdV6+Vehicle, listed as filociclovir), the “morbidity and mortality (survival)” value is “efficacious; also recorded: effective to prevent morbidity and mortality”. Also, the “prevention of pathology caused by intravenous AdV6 infection” value with AdV6 (10 mg/kg p.o. q.d., up to 4 days post-infection) is “safe and effective”. Besides, in the data set with AdV6 (10 mg/kg, start 4 days post challenge), the “AdV6 replication in the liver” value is listed as “inhibits AdV6 replication in the liver”. For the same compound, the “liver pathology, transaminase (ALT) levels” value in the data set on AdV6 (10 mg/kg, start up to 4 days post challenge, day +4 p=0.1452) is “mitigates liver pathology”. Besides, in the data set with adenovirus 19 (AdV19), the “treat or prevent infection” value is reported as “effective”.
